Literature values as cited in US8821921B2, “Vitamin D3 for the transdermal treatment of pain and inflammation” (Anzamed International Limited, priority 2009, dated 2014).

Test system: diabetic neuropathic pain
Conditions: daily oral doses, patients with diabetic neuropathy

## C=C1CC[C@H](O)C/C1=C/C=C1\CCC[C@]2(C)[C@@H]([C@H](C)CCCC(C)C)CC[C@@H]12 [vitamin D3, cholecalciferol]
  diabetic neuropathic pain: significant reduction
